According to US20120122870A1, “Treatment Of Ischemia-Reperfusion Injury” (MUSC FOUNDATION FOR RESEARCH DEVELOPMENT, priority 2009, published 2012):
“Also recorded” adds a separate entry of the source.

Legend:
[1] = tested on: kidney damage after severe ischemia-reperfusion; test: Kidney histology (H&E) after severe kidney IR; type: in vivo, mice; conditions: 4 and 48 hours post ischemia and reperfusion
Method: Kidneys from the animals described with respect to FIG. 4 were sectioned and stained with H&E for histological evaluation. […] Kidney sections were quantitatively scored on a scale of 1 to 3 for five parameters (tubule cell swelling, tubular dilatation, edema, epithelial necrosis and tubular casts) that were added to generate a total score (FIG. 6).

[2] = tested on: SK expression in the liver; test: SK immunohistochemistry in liver after hepatic warm IR; type: in vivo, mice; conditions: 50 mg/kg gavage 1 h prior to surgery; 1 h-ischemia plus 6 h-reperfusion
Method: Warm IR upregulates SK in the liver. IR injury to the liver occurs in LT. Since SK is associated with inflammatory processes, we investigated whether IR affects SK expression in the liver. Male C57BL/6 mice (8-9 weeks) were gavaged with ABC294640 (ABC, 50 mg/kg) or an equal volume of vehicle (0.375% Tween-80 in phosphate buffer) 1 h prior to surgery. Under ether anesthesia, hepatic ischemia was induced by clamping the hepatic artery and portal vein to the upper three lobes of the liver (i.e., about 70% of total liver). One hour later, the ischemic liver was reperfused by opening the vascular clamp. Livers were collected 6 h later under pentobarbital anesthesia (80 mg/kg, i.p.) and SK was detected immunohistochemically. […] SK expression increased markedly after hepatic IR (FIG. 9 middle). Upregulation of SK occurred most overtly in hepatocytes in the midzonal regions of the liver lobule. […] Immunohistochemistry: Sections were deparaffinized in xylene, rehydrated in a series of graded alcohol concentrations and placed in phosphate buffered saline with 0.1% Tween-20. […] Appropriate peroxidase-conjugated secondary antibodies (DAKO Corp.) were then applied, followed by 3,3'-diaminobenzidine chromagen as the peroxidase substrate. A light counterstain of Meyer's hematoxylin was applied.

[3] = tested on: hepatic warm IR in C57BL/6 mice; test: Liver necrosis (H+E, image analysis) after hepatic warm IR; type: in vivo
Method: Warm IR upregulates SK in the liver. IR injury to the liver occurs in LT. Since SK is associated with inflammatory processes, we investigated whether IR affects SK expression in the liver. Male C57BL/6 mice (8-9 weeks) were gavaged with ABC294640 (ABC, 50 mg/kg) or an equal volume of vehicle (0.375% Tween-80 in phosphate buffer) 1 h prior to surgery. Under ether anesthesia, hepatic ischemia was induced by clamping the hepatic artery and portal vein to the upper three lobes of the liver (i.e., about 70% of total liver). One hour later, the ischemic liver was reperfused by opening the vascular clamp. Livers were collected 6 h later under pentobarbital anesthesia (80 mg/kg, i.p.) and SK was detected immunohistochemically. […] SK expression increased markedly after hepatic IR (FIG. 9 middle). Upregulation of SK occurred most overtly in hepatocytes in the midzonal regions of the liver lobule.
ABC294640 prevents hepatic warm IR-induced cell death. SK increased after hepatic IR, therefore, we investigated whether ABC294640 protects against hepatic IR injury. […] Necrotic areas became panlobular after 1 h-ischemia plus 6 h of reperfusion (FIG. 10, middle). Necrotic area, quantified by computerized image analysis of 10 random fields per slide, accounted for 68% of the liver tissue (FIG. 11A). […] Hepatic apoptosis was evaluated by terminal deoxylnucleotidyl transferase-mediated deoxyuridine triphosphate biotin nick end labeling (TUNEL) (FIG. 11B). […]
Histology: Under pentobarbital anesthesia (50 mg/kg, i.p.), livers were rinsed with 10 ml normal saline and perfusion-fixed with 4% paraformaldehyde in phosphate buffer, embedded in paraffin, and sections were stained with hematoxylin-eosin (H+E). Necrotic areas in sections were quantified by image analysis using an Image-1/AT image acquisition and analysis system (Universal Imaging Corp., West Chester, Pa.) incorporating an Axioskop 50 microscope (Carl Zeiss, Inc., Thornwood, NY) and a 10× objective lens.

hepatic warm IR in mice = test: Survival after hepatic warm IR with removal of non-ischemic lobes; type: in vivo; conditions: 1 h-ischemia, non-ischemic lobes removed, observed 7 days
Text: To evaluate the effects of ABC294640 on survival of mice after IR, the non-ischemic liver lobes were removed after the vascular clamp was opened and mice were observed 7 days for survival. This procedure mimics total LT.

[4] = tested on: phosphorylated p65 subunit of NF-κB; test: Phosphorylated p65 NF-κB immunoblot after hepatic warm IR; type: in vivo, mice; conditions: livers harvested 2 h after IR
Method: ABC294640 prevents hepatic warm IR-induced tumor necrosis factor-α (TNFα) formation and NF-κB activation. Toxic cytokine formation and inflammatory processes play important roles in IR injury, and S1P is well known to promote inflammation. Accordingly, we investigated whether ABC294640 affects the expression of the pro-inflammatory cytokine TNFα after IR. Livers were harvested at 2 h after reperfusion and TNFα mRNA was detected by quantitative real time PCR. TNFα mRNA increased ˜10-fold after IR (FIG. 15, upper). ABC294640 blunted this increase in TNFα mRNA by ˜50%. NF-κB activation is involved in inflammatory cytokine formation and upregulation of adhesion molecules. After IR, phosphorylation of p65 subunit of NF-κB increased markedly, indicating NF-κB activation. This effect was also blunted by ABC294640 (FIG. 15 lower) which is consistent with our previous studies of NF-κB activation. Western blotting: Briefly, liver tissue was homogenized in a 0.1% Triton-X100 buffer containing a protease inhibitor cocktail, and the extract was centrifuged at 12,000×g for 10 min at 4° C. […] Expression of the protein of interest was quantified by the density of Western blot images by densitometry and standardized by house keeping gene actin.

Q: Which results are given for `O=C(NCc1ccncc1)C12CC3CC(C1)CC(c1ccc(Cl)cc1)(C3)C2` [ABC294640, 3-(4-chlorophenyl)-N-(pyridin-4-ylmethyl)adamantane-1-carboxamide]?
A: kidney histological damage vs vehicle [1]: protects against microscopic damage; also recorded: much less damage; upregulation of SK after hepatic IR [2]: prevents upregulation; also recorded: attenuated upregulation; necrotic area of liver tissue ([3]; 50 mg/kg, 1 h-ischemia plus 6 h of reperfusion, image analysis of 10 random fields): ~7%; necrosis / cell death after hepatic IR (in words) ([3]; 1 h-ischemia plus 6 h-reperfusion): attenuates necrosis; also recorded: prevents cell death; attenuation of necrosis compared to vehicle-treated livers ([3]; 1 h-ischemia plus 6 h of reperfusion): ~90%; survival / acute liver failure after IR (in words) (hepatic warm IR in mice): significantly different; also recorded: completely prevented acute liver failure; survival after IR (hepatic warm IR in mice; pretreated mice): 100%; phosphorylation of p65 subunit of NF-κB (NF-κB activation) [4]: blunts
